# Measured values taken from article PMC3251925 (Bioorganic & medicinal chemistry, 2011).
# Like-named read-outs stand apart in the source and are kept apart here.
# What was measured:
# Edema Factor (EF) [1] = target: T1, Edema Factor (EF) (Bacillus anthracis, UniProt P40136); assay: cell-based; type: cell-based
# [2] = test system: enterotoxigenic E.coli (ETEC); type: in vivo; settings: assuming 5 ml serum/mouse
# [3] = test system: human GADD45α gene-GFP reporter in TK6 cells (GenM-T01, GenM-C01)
# RAW 264.7 cells = settings: added alone, at the highest dose tested
# Edema Factor (EF) [4] = target: T1, Edema Factor (EF); settings: read-out: IC50, inhibition of cAMP production induced by edema toxin; cited from earlier work
# [5] = test system: enterotoxigenic E.coli (ETEC); settings: cited from earlier work
# cholera toxin = settings: cited from earlier work
# [6] = in vivo; cited from earlier work
# T1 sequence (P40136 whole entry, looked up): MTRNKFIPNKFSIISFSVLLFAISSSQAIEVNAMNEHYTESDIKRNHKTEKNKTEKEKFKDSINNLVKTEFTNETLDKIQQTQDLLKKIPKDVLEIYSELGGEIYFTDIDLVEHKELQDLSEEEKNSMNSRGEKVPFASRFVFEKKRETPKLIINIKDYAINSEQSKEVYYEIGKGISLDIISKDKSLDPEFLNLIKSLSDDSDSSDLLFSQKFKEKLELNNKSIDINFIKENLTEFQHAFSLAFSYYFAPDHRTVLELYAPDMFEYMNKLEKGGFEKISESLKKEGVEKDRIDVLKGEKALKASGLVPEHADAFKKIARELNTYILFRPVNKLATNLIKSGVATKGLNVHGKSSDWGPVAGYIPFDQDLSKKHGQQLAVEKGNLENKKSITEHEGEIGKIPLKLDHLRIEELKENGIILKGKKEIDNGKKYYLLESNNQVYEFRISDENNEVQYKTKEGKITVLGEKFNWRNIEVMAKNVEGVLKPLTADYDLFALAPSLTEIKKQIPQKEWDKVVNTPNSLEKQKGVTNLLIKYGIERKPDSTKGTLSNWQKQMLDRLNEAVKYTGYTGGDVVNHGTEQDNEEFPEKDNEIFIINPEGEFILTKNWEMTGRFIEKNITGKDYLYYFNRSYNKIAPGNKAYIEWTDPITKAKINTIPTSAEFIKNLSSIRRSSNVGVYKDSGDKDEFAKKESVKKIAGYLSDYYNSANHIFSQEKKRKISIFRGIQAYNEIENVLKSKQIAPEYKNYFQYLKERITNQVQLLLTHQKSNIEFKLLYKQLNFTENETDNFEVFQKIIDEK
compound,measurement,setting,value
3-[(Biphenyl-3-carbonyl)-amino]-benzoic acid [Compound 2],IC50,Edema Factor (EF) [1]; read-out: IC50 (μM) Assay 1,19 µM
"O=C(O)c1cccc(NC(=O)c2cccc3c2C(=O)c2ccccc2-3)c1 [Compound 1, 3-(9-oxo-9H-fluorene-1-carboxamido)benzoic acid]",IC50,Edema Factor (EF) [1],1.64 to 12.3 µM
same,Active dose in mice expressed as concentration,[2],about 3 μg/ml
same,Mutagenicity,tester strain TAMix,non-mutagenic
same,Number of revertants,tester strain TAMix,doubling
same,Concentration determined to be cytotoxic,[3],62.5 µg/mL
same,Concentration with genotoxic activity (positive response),[3],62.5 µg/mL
same,Obvious toxicity to cultured cells,RAW 264.7 cells,no obvious toxic effect
same,IC50,Edema Factor (EF) [4],2 to 9 µM
same,Effective dose to reduce diarrhea in mice (from ETEC),"[5]; intraperitoneally or by gavage, per mouse",7.5 to 15 µg
same,Diarrhea caused by ETEC,"[5]; mouse, oral gavage dose of 15 μg/mouse",reduced diarrhea
same,Levels of bacteria in the colons of infected and treated mice,[5]; versus mice that did not receive the compound,much lower
same,Inhibition of cholera toxin,cholera toxin,inhibits cholera toxin
same,Obvious toxic effect in mouse studies,[6],no obvious toxic effect
"O=C(Nc1ccccc1)c1cccc2c1C(=O)c1ccccc1-2 [Compound 4, 9-oxo-N-phenyl-9H-fluorene-1-carboxamide]","EF inhibitory activity, in words",Edema Factor (EF) [1],relatively inactive
"Nc1ccc(NC(=O)c2cccc3c2C(=O)c2ccccc2-3)c(C(=O)O)c1 [Compound 6, 5-Amino-2-(9-oxo-9H-fluorene-1-carboxamido)benzoic acid]","EF inhibitory activity, in words",Edema Factor (EF) [1],inactive
"O=C(O)c1cc(NC(=O)c2cccc3c2C(=O)c2ccccc2-3)ccc1O [Compound 9, 2-Hydroxy-5-(9-oxo-9H-fluorene-1-carboxamido)benzoic acid]","EF inhibitory activity, in words",Edema Factor (EF) [1],inactive
"Nc1cc(NC(=O)c2cccc3c2C(=O)c2ccccc2-3)cc(C(=O)O)c1 [Compound 10, 3-amino-5-(9-oxo-9H-fluorene-1-carboxamido)benzoic acid]",IC50,Edema Factor (EF) [1],1.3 µM
same,Obvious toxicity to cultured cells,RAW 264.7 cells,neither caused obvious toxicity
"COC(=O)c1cc(NC(=O)c2cccc3c2C(=O)c2ccccc2-3)ccc1O [Compound 14, Methyl 2-hydroxy-5-(9-oxo-9H-fluorene-1-carboxamido)benzoate]","EF inhibitory activity, in words",Edema Factor (EF) [1],completely inactive
same,IC50,Edema Factor (EF) [1],249 µM
"CN(C)c1cccc(NC(=O)c2cccc3c2C(=O)c2ccccc2-3)c1 [Compound 19, N-(3-(dimethylamino)phenyl)-9-oxo-9H-fluorene-1-carboxamide]",Obvious toxicity to cultured cells,RAW 264.7 cells,neither caused obvious toxicity
